Test results: patent US9301521B2, “Bee attractants” (priority 2013, dated 2016)

Legend:
[1] = test system: O. bucephala female antennae; assay: EAG response to specific fatty acids and mixtures; parameters: species or system Osmia bucephala; conditions: O. bucephala (n = 8); 100 CE
Excerpt: (§1) The objective of this example is to compare antennal responses of three Osmia species (O. lignaria, O. bucephala, and O. cornifrons obtained from near a Pennsylvania apple orchard) to each of three fatty acids, each combined mixture of two acids, and the combined mixture of all acids (see Table 11). Female and male bees are maintained in laboratory cages and fed honey-water ad libitum for four days. On the fourth day, one antenna at a time is removed from each chilled, live female test bee with scissors and placed on the electrode probe of a Syntech EAG (Kirchzarten, Germany). The electrode with the antenna is inserted into a glass tube into which flows humidified air, and into which a stimulus (air, a fatty acid, or fatty acid mixture) is applied.
(§2) Each of the above indicated fatty acids, purchased from Sigma-Aldrich (St. Louis, Mo.), are dissolved in ethyl alcohol at a concentration similar to that used for the Synthetic Blend. Each fatty acid and each mixture (Equistar Chemicals, LP, Houston, Tex.) is evenly applied to a circular filter paper in Petri dish (9 cm) at dose of 100 CE. A 1.5 cm^2 piece of filter paper is cut from the center of the filter paper circle. The piece of filter paper is placed into the disposable glass pipette (4.6 cm) that is used for delivery by applying a controlled puff of air over the filter paper.
(§3) Each of the single or mixtures of fatty acids described above (see Table 11) and a control (air) are tested on an antenna: Air or filter paper pieces with each fatty acid or fatty acids mixture are delivered in succession every minute until an antenna is exposed to each cue and air three times (total test period=30 minutes). The antennal responses are recorded, and their amplitudes are measured using Syntech EAG software (Kirchzarten, Germany). The antennal responses of ≦12 female bees per species are recorded. […]

[2] = test system: O. cornifrons female antennae; assay: EAG response to specific fatty acids and mixtures; parameters: species or system Osmia cornifrons; conditions: O. cornifrons (n = 12); 100 CE
Excerpt: as §1, §2, §3

[3] = test system: O. lignaria female antennae; assay: EAG response to specific fatty acids and mixtures; parameters: species or system Osmia lignaria; conditions: O. lignaria (n = 12); 100 CE
Excerpt: as §1, §2, §3

[4] = Evaporation rates of attractants (weight loss of vials); assay type: physicochemical
Protocol: The objective of this experiment is to quantify the loss of the fatty acids and Synthetic Blend via evaporation. Synthetic Blend is prepared as per Example 3. Decanoic acid, dodecanoic acid, and tetradecanoic acid are purchased as per Example 4. Synthetic Blend is a liquid at room temperature. Vials containing between 0.235 and 0.304 grams of either Synthetic Blend or each individual fatty acid are placed in a 40° C. incubator and a ˜30° C. incubator room with a fan and are weighed after 1, 4, 10, 24, 31, 39 and 44 days. Three vials are monitored for each attractant, and the average weight loss is calculated. All samples lose weight faster at 30° C. with airflow compared to 40° C. without airflow. After […] at 30° C. with airflow, Synthetic Blend loses only 0.57% of its weight (see FIG. 2). This loss of mass is caused mostly by evaporation of decanoic acid which comprises approximately 73% of Synthetic Blend. After 24 days, Synthetic Blend loses 9.8% of its mass and after 44 days, 17.2% of its mass. A linear relationship is found between weight loss and days for both environments (see FIG. 3).

O. lignaria = assay: Field tests with fatty acids on filter papers, apple orchard in Utah; assay type: in vivo, Osmia lignaria; conditions: single fatty acid set; for females found in artificial nest sites, range: 9 sample dates; for Cells/replicate / Nests/replicate / Females/date: 400 CE per nest site; for Cells/replicate / Nests/replicate: five replicates; for Females/date: mean ± SE for 9 sample dates
Excerpt: To better understand whether application of one, or some mixture of, free fatty acids to nesting material or artificial nest sites is attractive to O. lignaria, two experimental sets are generated so that one set tests for differences in bee response to each single fatty acid and the other set tests for differences in bee response to mixtures of the fatty acids described above in Table 11. Fatty acids are applied to separate filter papers so that each filter paper contains 200 CE. As a negative control, the volume of ethyl alcohol used for the other samples is applied to its own filter paper. For the experiment in an apple orchard in Utah, each small, corrugated plastic box artificial nest site (20×23×20 cm), with two bundles of 19 paper tubes each, is hung in an apple tree; nest sites are separated by one tree between them within each replicate group. To each nest site, two of the 200 CE impregnated filter papers are applied; thus, a total of 400 CE of the stimulus is present within each nest site. Each filter paper (containing either a single fatty acid, one mixture of fatty acids, or the negative control) is attached using cable ties to the front of one tube in each of the two bundles in each artificial nest site. The filter papers are replaced weekly. Each artificial nest site contains only one type of treatment. For the single fatty acid comparison, artificial nest sites are placed in the orchard in five replicates of the three treatments plus a control (i.e., four nest sites per replicate), with each artificial nest site opening facing southeast. For the mixtures of fatty acids comparison, artificial nest sites are placed in the orchard in five replicates of the four treatments plus a control (i.e., five nest sites per replicate), with each artificial nest site opening facing southeast. Both experimental sets are located in the same orchard where they are intermittently placed but separated by at least two rows of apple trees. A total of 540 female and 1000 male bees are released throughout the orchard at least one tree row from the artificial nest sites using several release box sites (with equal numbers of bees per box). Artificial nest sites are checked daily for the presence of male and female bees and for tubes with completed nests. Tubes with completed nests are removed and are replaced with fresh ones. Later, all nests containing any bee cells are examined with x-radiography to determine number of cells in each nest.

| SMILES | Mean Amplitude ± SE [1] | Mean Amplitude ± SE [2] | Mean Amplitude ± SE [3] | relative evaporation of blend components [4] | females found in artificial nest sites, range (O. lignaria) | Cells/replicate (O. lignaria) | Nests/replicate (O. lignaria) | Females/date (O. lignaria) |
| --- | --- | --- | --- | --- | --- | --- | --- | --- |
| CCCCCCCCCC(=O)O [Decanoic acid, decanoic acid] | −1.31 ± 0.10 | −0.89 ± 0.06 | −0.98 ± 0.06 | evaporated much faster than tetradecanoic acid and dodecanoic acid | 4-15 | 13.4 ± 6.13 | 2.6 ± 1.17 | 10.2 ± 1.14 |
| CCCCCCCCCCCC(=O)O [Dodecanoic acid, dodecanoic acid] | −0.83 ± 0.06 | −0.43 ± 0.04 | −0.41 ± 0.03 | – | – | 8.8 ± 7.40 | 1.4 ± 1.17 | 3.4 ± 0.67 |
| CCCCCCCCCCCCCC(=O)O [Tetradecanoic acid, tetradecanoic acid] | −0.92 ± 0.07 | −0.43 ± 0.04 | −0.41 ± 0.03 | – | 0-1 | 1.6 ± 1.6 | 0.2 ± 0.2 | 0.4 ± 0.17 |
